For assay [1], the system named is rabbits. Kind of assay: Anti-McGinty assay (antiprogestational activity, test compound plus progesterone). The arrangement: key to McPhail Index, Anti-McGinty Assay, Standard / McPhail Index, Anti-McGinty Assay (Antagonist): McPhail scoring scale for progestational endometrial response. The assay is classed as in vivo, rabbit. As to conditions: for McPhail Index, Anti-McGinty Assay (Antagonist): plus progesterone. The procedure:
(§1) Progestational activity and antiprogestational activity were determined in rabbits by means of the McGinty test (test compound alone, procedure of McGinty et al., Endocrinology, 24: 829-832 (1939)) or anti-McGinty test (test compound plus progesterone, procedure of Tamara et al., Jpn. J. Fertil Steril 24: 48-81 (1979)). Results were scored according to McPhail (McPhail, J Physiol., 83: 146 (1934)). These are standard procedures known to those skilled in the art. The results of these assays are shown in Tables 4 (agonist activity) and 5 (antagonist activity). […] Physiol, 83: 146 (1934)).

Assay [2] deals with rabbits. Put plainly: McGinty assay (progestational activity, test compound alone). The assay is classed as in vivo, rabbit. The arrangement: key: McPhail scoring scale for progestational endometrial response. As for the experimental part: as §1
In the next assay the target is T1, progestin receptor (rPR) (Oryctolagus cuniculus, UniProt P06186).
T1 construct: hormone receptors for progestins and glucocorticoids from rabbits; from tissue; host or cells: rabbit
T1 sequence (P06186 1-930): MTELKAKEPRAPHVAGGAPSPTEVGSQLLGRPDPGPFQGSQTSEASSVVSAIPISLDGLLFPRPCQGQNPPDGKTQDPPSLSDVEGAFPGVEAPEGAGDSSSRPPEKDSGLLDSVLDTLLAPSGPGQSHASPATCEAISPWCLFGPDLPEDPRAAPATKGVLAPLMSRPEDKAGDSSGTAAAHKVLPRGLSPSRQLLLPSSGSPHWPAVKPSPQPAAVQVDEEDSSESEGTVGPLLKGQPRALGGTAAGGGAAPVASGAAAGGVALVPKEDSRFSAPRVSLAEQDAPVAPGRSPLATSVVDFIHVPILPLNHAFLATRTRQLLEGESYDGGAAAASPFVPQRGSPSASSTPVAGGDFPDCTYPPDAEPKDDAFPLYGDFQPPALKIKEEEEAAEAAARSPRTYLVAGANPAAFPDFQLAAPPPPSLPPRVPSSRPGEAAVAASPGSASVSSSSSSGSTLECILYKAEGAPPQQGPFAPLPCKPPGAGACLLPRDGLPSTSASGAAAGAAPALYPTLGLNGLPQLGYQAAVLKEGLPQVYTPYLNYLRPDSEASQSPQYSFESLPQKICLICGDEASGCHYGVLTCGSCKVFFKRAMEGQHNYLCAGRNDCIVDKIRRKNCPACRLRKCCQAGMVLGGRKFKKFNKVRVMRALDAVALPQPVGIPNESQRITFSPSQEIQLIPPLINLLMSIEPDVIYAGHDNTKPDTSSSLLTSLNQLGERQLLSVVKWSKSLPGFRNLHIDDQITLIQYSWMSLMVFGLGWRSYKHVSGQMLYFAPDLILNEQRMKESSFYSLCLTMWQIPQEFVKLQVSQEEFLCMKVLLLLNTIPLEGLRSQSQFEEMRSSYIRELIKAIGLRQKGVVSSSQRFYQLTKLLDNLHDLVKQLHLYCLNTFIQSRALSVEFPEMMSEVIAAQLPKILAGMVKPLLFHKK
Kind of assay: Receptor binding (rabbit), progestin receptor. To be noted: for Ratio PR/GR: ratio of rPR to rGR relative affinities; for Relative Binding Affinity, rPR, Relative Affinity (Progesterone): relative to progesterone = 100, rabbit progestin receptor.

`CC(=O)c1ccc([C@H]2C[C@@]3(C)[C@@H](CC[C@]3(CCCO)[N+](=O)[O-])[C@@H]3CCC4=CC(=O)CCC4=C32)cc1` [I 4-CH3 CO H O H --(CH2)3 OH, 11β-(4-Acetylphenyl)-17α-(3-hydroxypropyl)-17β-nitroestra-4,9-dien-3-one]: the “McPhail Index, Anti-McGinty Assay (Antagonist)” value (“McPhail Index … (Antagonist)” for short) in the assay on rabbits [1] (dose 0.3 micrograms) came out at 2.93 ± 0.12; in the assay with rabbits [1] (dose 3 micrograms), 2.43 ± 0.6; with rabbits [1] (dose 30 micrograms), 1.60 ± 0.66. Moreover, the “McPhail Index, McGinty Assay (Agonist)” value in the assay with rabbits [2] (dose 0.3 micrograms), in the assay on rabbits [2] (dose 3 micrograms) and with rabbits [2] (dose 30 micrograms) was 0 ± 0 each time. On progestin receptor (rPR), the “Ratio PR/GR” value came to 17.7. For the same compound, on progestin receptor (rPR), the “Relative Binding Affinity, rPR, Relative Affinity (Progesterone)” value (shortened to “Relative Binding Affinity, rPR”) is 53.

Consider `CC#C[C@]1([N+](=O)[O-])CC[C@H]2[C@@H]3CCC4=CC(=O)CCC4=C3[C@@H](c3ccc(C(C)=O)cc3)C[C@@]21C` [I 4-CH3 CO H O H --CC--CH3, 11β-(4-Acetylphenyl)-17β-nitro-17α-(1-propynyl)estra-4,9-dien-3-one], for which the “McPhail Index … (Antagonist)” value with rabbits [1] (dose 0.3 micrograms) is 2.173 ± 0.42; with rabbits [1] (dose 3 micrograms) it was 2.47 ± 0.15; with rabbits [1] (dose 30 micrograms), 0.13 ± 0.12. In addition, the agonist/antagonist profile result with rabbits [1] (in words, McGinty and anti-McGinty tests) is on record as “mixed (agonist/antagonist) profile”. Further, the “McPhail Index, McGinty Assay (Agonist)” value in the assay on rabbits [2] (dose 0.3 micrograms) came out at 0.13 ± 0.12; with rabbits [2] (dose 3 micrograms), 1.33 ± 0.35; in the assay on rabbits [2] (dose 30 micrograms) it was 0.97 ± 0.75. In addition, the “Ratio PR/GR” value on progestin receptor (rPR) is on record as 7.7. Further, at progestin receptor (rPR), the “Relative Binding Affinity, rPR” value is 153.

As to `CC(=O)c1ccc([C@H]2C[C@@]3(C)[C@@H](CC[C@]3(/C=C/CO)[N+](=O)[O-])[C@@H]3CCC4=CC(=O)CCC4=C32)cc1` [I 4-CH3 CO H O H CH=CHCH2 OH, 11β-(4-acetylphenyl)-17α-(E-3-hydroxy-1-propenyl)-17β-nitroestra-4,9-dien-3-one], the results for the “McPhail Index … (Antagonist)” value in the assay on rabbits [1] (dose 0.3 micrograms), in the assay with rabbits [1] (dose 3 micrograms) and with rabbits [1] (dose 30 micrograms) were 1.53 ± 0.68, 1.76 ± 0.45 and 2.3 ± 0.0, respectively. Also, the “McPhail Index, McGinty Assay (Agonist)” value in the assay on rabbits [2] (dose 0.3 micrograms), with rabbits [2] (dose 3 micrograms) and in the assay with rabbits [2] (dose 30 micrograms) was 0 ± 0 each time. Besides, the “Ratio PR/GR” value at progestin receptor (rPR) was found to be 6.5. On progestin receptor (rPR), the “Relative Binding Affinity, rPR” value is reported as 26.

For the compound `CN(C)c1ccc([C@H]2C[C@@]3(C)[C@@H](CC[C@]3(CCCO)[N+](=O)[O-])[C@@H]3CCC4=CC(=O)CCC4=C32)cc1` [I 4-Me2 N H O H --(CH2)3 OH, 11β-[4-(N,N-Dimethylamino)phenyl]-17α-(3-hydroxypropyl)-17β-nitroestra-4,9-dien-3-one], the “McPhail Index … (Antagonist)” value with rabbits [1] (dose 0.3 micrograms) is 1.83 ± 0.48; in the assay on rabbits [1] (dose 3 micrograms) it was 1.87 ± 0.98; in the assay on rabbits [1] (dose 30 micrograms) it was 0.43 ± 0.31. Moreover, the entries for the “McPhail Index, McGinty Assay (Agonist)” value in the assay with rabbits [2] (dose 0.3 micrograms), in the assay with rabbits [2] (dose 3 micrograms) and in the assay on rabbits [2] (dose 30 micrograms) were 0 ± 0, 0 ± 0 and 0.03 ± 0.057, respectively. Moreover, the “Ratio PR/GR” value at progestin receptor (rPR) came out at 2.3. At progestin receptor (rPR), the “Relative Binding Affinity, rPR” value is recorded as 170.

On to `CC1=[N+]([O-])C2(CC1)CCC1C3CCC4=CC(=O)CCC4=C3C(c3ccc(N(C)C)cc3)CC12C` (stereo not drawn) [II 4-Me2 N H O H -- CH3, 3',4'-dihydro-11β-(4-(N,N-dimethylamino)phenyl)-5'-methyl-1'-oxo-spiro[estra-4,9-dien-17β,2'(2'H)-pyrrole]-3-one], for which the “McPhail Index … (Antagonist)” value in the assay with rabbits [1] (dose 0.3 micrograms) was 2.03 ± 0.14; in the assay with rabbits [1] (dose 3 micrograms), 1.9 ± 0.85; with rabbits [1] (dose 30 micrograms), 0 ± 0. In addition, in the assay with rabbits [1] (in words), the “antiprogestational activity in the anti-McGinty assay” value is “potent antiprogestin in the anti-McGinty assay”. Further, the “McPhail Index, McGinty Assay (Agonist)” value in the assay on rabbits [2] (dose 0.3 micrograms), in the assay on rabbits [2] (dose 3 micrograms) and with rabbits [2] (dose 30 micrograms) was 0 ± 0 each time. Moreover, at progestin receptor (rPR) (in words), the “separation of progestin and glucocorticoid receptor affinity” value was “excellent separation of progestin and glucocorticoid receptor affinity”. The “Ratio PR/GR” value on progestin receptor (rPR) was found to be 78.5. The “Relative Binding Affinity, rPR” value on progestin receptor (rPR) was determined as 157.

The values above are taken from patent publication US6015805A, “17β-nitro-11β-arylisteroids and their derivatives having agonist or antagonist hormonal properties” (Research Triangle Research North Carolina, priority 1999, dated 2000).
